Results as given in US20130203726A1, “FtsZ INHIBITORS AS POTENTIATORS OF BETA-LACTAM ANTIBIOTICS AGAINST METHICILLIN-RESISTANT STAPHYLOCOCCUS” (priority 2010, published 2013).
Read-outs that look alike come from different tables or passages of the source.

Columns and labels:
[1] = system: MRSA COL strains bearing xylose-regulated antisense fragments corresponding to FtsZ, FtsA, or FtsW; assay type: cell-based, Staphylococcus aureus; conditions: 50 mM xylose (antisense induced) versus no xylose, FtsZ-AS
Method: See Forsyth et al., 2002, Mol. Microbial 43:1387-1400 for details concerning plasmid and antisense interference construction. Strains were grown overnight in Luria Bertani (LB) Miller broth at 37° C. containing 34 μg/ml chloramphenicol. Assay plates were prepared by seeding 10^7 cells/ml of each culture into 48° C. cooled LB Miller agar containing 34 μg/ml chloramphenicol. To partially repress FtsZ expression, 50 mM xylose was supplemented to plates. This antisense inducer concentration modestly impairs growth of each strain equally, reflecting a 20% inhibitory growth concentration (i.e., xylose IC20˜50 mM).
The following antibiotics were then spotted on the surface of the plates: carbapenems, imipenem (12.8 μg) and ertapenem (51.2 μg); cephalosporins, cefepime (102.4 μg), ceftazidime (102.4 μg), and ceftriaxone (102.4 μg); and the β-lactam piperacillin (combined with the […] in a 8:1 molar ratio (25.6 μg). As a control, MRSA COL was identically tested but under conditions where no xylose was supplemented into the medium (i.e., non-repressed FtsZ) as well as by identically processing the MRSA COL strain transformed with pEPSA5 but lacking an antisense fragment (data not shown). As a control for the specificity of ftsZ, ftsA, and ftsW mutant susceptibility to β-lactams, the non-β-lactam cell wall antibiotic, vancomycin (0.8 μg) was additionally spotted. Plates were then incubated at 37° C. for 16 h and photographed.
The effect FtsZ, FtsA, or FtsW imparts on MRSA susceptibility to the above antibiotics was determined by comparing their zone of inhibition between plates supplemented with antisense inducer (50 mM xylose) versus those without xylose. Differential antibiotic zones of inhibition between FtsZ, FtsA, and FtsW antisense bearing strains grown under xylose induced versus non-induced conditions reflect Fts gene-dependent restoration of MRSA COL susceptibility to β-lactams.

[2] = system: MRSA COL; experiment: Checkerboard assay (MIC, FIC index) against MRSA; assay type: cell-based, S. aureus
Excerpt: (§1) The checkerboard method is the technique most frequently used to assess antimicrobial combinations in vitro. See Antibiotics in Laboratory Medicine Victor Lorian ed. 2005. The term. checkerboard refers to the pattern of microtiter wells formed by multiple dilutions of the two antimicrobials being tested in concentrations equal to, above and below their minimal inhibitory concentrations (MICs) against the organisms being tested. The checkerboard consists of columns in which each well contains the same amount of Drug A being two-fold diluted along the x-axis and rows in which each well contains the same amount of Drug B being two-fold diluted on the Y-axis. The result is that each well contains a unique combination of the two drugs being tested. Also tested is the antimicrobial activity of each agent singly.
(§2) The 96 well U-bottom polypropylene microtiter plates (Fisher Scientific, Pittsburgh, Pa.) were inoculated with 90 μl of bacterial cells (grown in Tryptic Soy Broth at 37° C. for 18 hours with rotary shaking) diluted in cation-adjusted Mueller Hinton broth to a final concentration of ˜5.5×10^5 CFU/mL.
(§3) β-lactam antibiotics were two-fold serially diluted along the Y-axis of 96-well U-bottom microtiter dishes (Fisher Scientific, Pittsburgh, Pa.) in microbiological growth media [brain heart infusion broth (BBL)]. FtsZ inhibitors were serially diluted along the X-axis of 96-well U-bottom microtiter dishes in microbiological growth media. The plates were inoculated with bacterial cells (grown in Trypticase Soy Broth at 37° C. for 18 hours with rotary shaking) to a final concentration of ˜5×10^5 CFU/mL. Test plates were incubated stationery at 37° C. for 22-24 hours.
(§4) The FIC index is most commonly used to report results of studies with antimicrobial combinations. In this method, the FIC for each drug is derived by dividing the concentration of that drug necessary to inhibit growth in a given combination by the MIC of the test organism for that drug alone. The FTC index (FICI) is then calculated by summing the separate FICs of the drugs present in that test well. Synergism is defined as an FTC index of 0.5.

[3] = system: MRSE CLB 26329; experiment: Checkerboard assay (MIC, FIC index) against MRSE; assay type: cell-based, S. epidermidis
Excerpt: as §1, §2, §3, §4

[4] = system: MRSA COL; experiment: MRSA deep thigh infection model in neutropenic mice; assay type: in vivo, Staphylococcus aureus; conditions: for reduction of bacterial burden per thigh: 24 hr
Method: Female mice (20-25 g) were rendered neutropenic via intraperitoneal injection of cyclophosphamide (Mead Johnson Pharmaceuticals) four days (150 mg/kg) and one day (100 mg/kg) prior to experimental infection. Neutropenic mice were infected on Day 0 via intramuscular thigh injection of 0.1 ml containing ˜1-2×10^6 CPU Staphylococcus aureus (strain B, MRSA COL) from freshly grown culture broth. Two hours post thigh infection, mice were randomized and groups were administered increasing doses of PC190723 (50, 100, 200 mg/kg orally (p.o.), t.i.d ([…]); equivalent to 150, 300, and 600 mg/kg/24 hr) in the absence or presence of imipenem/cilastatin (10 mg/kg/50 mg/kg subcutaneously (s.c.), t.i.d. ([…]); equivalent to 30 mg/kg/24 hr and 150 mg/ kg/24 hr). Assay control groups included non-infected, vehicle-treated mice, vehicle-treated baseline infected (t=0 hr) mice, vehicle-treated 24 hr infected (t=24 hr) mice, and linezolid ((Zyvox IV solution, Bell Medical; 40 mg/kg orally (p.o.), b.i.d. ([…]) equivalent to 80 mg/kg/24 hr).
Twenty four hours post the initiation of therapy, mice were sacrificed, thighs aseptically removed, placed in 4 ml sterile phosphate buffered saline (Fisher Scientific), and homogenized using a Polytron (Brinkmann Instruments). Homogenates were serially 100-fold diluted in 9.9 ml sterile saline and plated on Mannitol Salt Agar plates. Plates were incubated at 35° C. for 48 hours and colony forming units (CFU) of bacteria remaining per thigh were determined.

[5] = FtsZ inhibitor in combination with amoxicillin, MRSA COL
[6] = FtsZ inhibitor in combination with cefazolin, MRSA COL
[7] = FtsZ inhibitor in combination with cefdinir, MRSA COL
[8] = FtsZ inhibitor in combination with cefazolin
[9] = FtsZ inhibitor in combination with cefepime, lowest achievable for PC190723

Molecule: COc1cc(Cc2cnc(N)nc2N)cc(OC)c1OC [trimethoprim]
- change of susceptibility (zone of inhibition) on partial genetic inactivation of FtsZ, FtsA or FtsW [1]: none of the FtsZ-AS, FtsA-AS, or FtsW-AS strains demonstrated altered hypersensitivity

Molecule: CN[C@H](CC(C)C)C(=O)N[C@H]1C(=O)N[C@@H](CC(N)=O)C(=O)N[C@H]2C(=O)N[C@H]3C(=O)N[C@H](C(=O)N[C@H](C(=O)O)c4cc(O)cc(O)c4-c4cc3ccc4O)[C@H](O)c3ccc(c(Cl)c3)Oc3cc2cc(c3O[C@@H]2O[C@H](CO)[C@@H](O)[C@H](O)[C@H]2O[C@H]2C[C@](C)(N)[C@H](O)[C@H](C)O2)Oc2ccc(cc2Cl)[C@H]1O [vancomycin]
- change of susceptibility (zone of inhibition) on partial genetic inactivation of FtsZ, FtsA or FtsW [1]: none of the FtsZ-AS, FtsA-AS, or FtsW-AS strains demonstrated altered hypersensitivity

Molecule: CC(=O)NC[C@H]1CN(c2ccc(N3CCOCC3)c(F)c2)C(=O)O1 [linezolid]
- change of susceptibility (zone of inhibition) on partial genetic inactivation of FtsZ, FtsA or FtsW [1]: none of the FtsZ-AS, FtsA-AS, or FtsW-AS strains demonstrated altered hypersensitivity

Molecule: O=C(O)c1cn(C2CC2)c2cc(N3CCNCC3)c(F)cc2c1=O [ciprofloxacin]
- change of susceptibility (zone of inhibition) on partial genetic inactivation of FtsZ, FtsA or FtsW [1]: none of the FtsZ-AS, FtsA-AS, or FtsW-AS strains demonstrated altered hypersensitivity

Molecule: Zantrin Z3
- lower levels of cefazolin required to inhibit growth ([2]; FtsZ inhibitor at FIC≦0.25 combined with cefazolin, MRSA): 16 fold
- FICI [2, 5]: no synergy was detected
- FICI [2, 6]: 0.25
- FICI [2, 7]: 0.5
- FICI ([2]; FtsZ inhibitor in combination with cefepime, MRSA COL): 0.25
- FICI ([2]; FtsZ inhibitor in combination with ceftazidime, MRSA COL): 0.28
- minimal inhibitory concentration (MIC) ([2]; agent alone, MRSA): 8−16.0 μg/ml
- lower levels of cefazolin required to inhibit growth ([3]; FtsZ inhibitor at FIC≦0.25 combined with cefazolin): 16 fold
- FICI ([3]; FtsZ inhibitor in combination with amoxicillin): 0.28
- FICI [3, 8]: 0.31
- FICI ([3]; FtsZ inhibitor in combination with cefdinir): 0.27
- FICI [3, 9]: 0.16
- FICI ([3]; FtsZ inhibitor in combination with ceftazidime): 0.50
- minimal inhibitory concentration (MIC) ([3]; agent alone): 8−16.0 μg/ml
- fraction of normal amoxicillin concentration needed to display MRSE efficacy ([3]; amoxicillin paired with Z3): 1/16
- reduced cefdinir concentration to restore anti-MRSE activity ([3]; cefdinir paired with Z3): 64 fold

Molecule: C/C=C/C/C=C/CCC(=O)[C@H]1O[C@H]1C(N)=O [cerulenin]
- change of susceptibility (zone of inhibition) on partial genetic inactivation of FtsZ, FtsA or FtsW [1]: none of the FtsZ-AS, FtsA-AS, or FtsW-AS strains demonstrated altered hypersensitivity

Molecule: NC(=O)c1c(F)ccc(OCc2nc3cc(Cl)cnc3s2)c1F [PC190723]
- antibacterial activity compared with linezolid ([4]; 10 mg/kg imipenem + 200 mg/kg PC190723, linezolid 40 mg/kg p.o. b.i.d.): approaching linezolid-like antibacterial activity
- reduction of bacterial burden per thigh ([4]; PC190723 50 mg/kg p.o. t.i.d. + imipenem 10 mg/kg s.c. t.i.d., FIG. 7A): −0.4 Log 10 CFU
- reduction of bacterial burden per thigh ([4]; PC190723 100 mg/kg p.o. t.i.d. + imipenem 10 mg/kg s.c. t.i.d., FIG. 7A): −1.2 Log 10 CFU
- reduction of bacterial burden per thigh ([4]; PC190723 100 mg/kg p.o. t.i.d. + imipenem 10 mg/kg s.c. t.i.d., FIG. 7B): −1.9 Log 10 CFU
- reduction of bacterial burden per thigh ([4]; PC190723 200 mg/kg p.o. t.i.d. + imipenem 10 mg/kg s.c. t.i.d., FIG. 7A): −3.1 Log 10 CFU
- reduction of bacterial burden per thigh ([4]; PC190723 200 mg/kg p.o. t.i.d. + imipenem 10 mg/kg s.c. t.i.d., FIG. 7B): −2.6 Log 10 CFU
- effect on MRSA COL bacterial burden in the thighs ([4]; monotherapy over 24 hr, imipenem 10 mg/kg s.c. t.i.d. or PC190723 50, 100, 200 mg/kg p.o. t.i.d., neutropenic mice): did not significantly alter
- lower levels of imipenem required to inhibit growth ([2]; FtsZ inhibitor at FIC≦0.25 combined with imipenem, MRSA): 16 fold
- FICI [2, 5]: 0.53
- FICI [2, 6]: 0.38
- FICI [2, 7]: 0.31
- FICI ([2]; FtsZ inhibitor in combination with ertapenem at its clinical breakpoint (8 μg/ml), MRSA): 0.5
- FICI ([2]; FtsZ inhibitor in combination with imipenem at its clinical breakpoint (4 μg/ml), MRSA): 0.31
- FIC of the FtsZ inhibitor at which synergy with β-lactams was shown ([2]; MRSA): 0.25
- MIC ([2]; Staphylococcus aureus, agent alone, MRSA, read-out: minimal inhibitory concentration (MIC)): 1 µg/mL
- MIC ([2]; agent alone, MRSA, FIG. 5 legend, unit not given): 1.0
- reduction of the effective inhibitory concentration of amoxicillin ([2]; combined with PC190723 at FIC=0.5, MRSA): ~32 fold
- FIC of the FtsZ inhibitor at which synergy with β-lactams was shown [3]: 0.25
- lower levels of imipenem required to inhibit growth ([3]; FtsZ inhibitor at FIC≦0.25 combined with imipenem): 32 fold
- FICI [3, 8]: 0.31
- FICI [3, 9]: 0.28
- FICI ([3]; FtsZ inhibitor in combination with ertapenem at its clinical breakpoint (8 μg/ml)): 0.5
- FICI ([3]; FtsZ inhibitor in combination with imipenem at its clinical breakpoint (4 μg/ml)): 0.31
- MIC ([3]; Staphylococcus epidermidis, agent alone, read-out: minimal inhibitory concentration (MIC)): 1 µg/mL
- MIC ([3]; agent alone, FIG. 5 legend, unit not given): 1.0

Molecule: CC[C@H]1OC(=O)[C@H](C)[C@@H](O[C@H]2C[C@@](C)(OC)[C@@H](O)[C@H](C)O2)[C@H](C)[C@@H](O[C@@H]2O[C@H](C)C[C@H](N(C)C)[C@H]2O)[C@](C)(O)C[C@@H](C)CN(C)[C@H](C)[C@@H](O)[C@]1(C)O [azithromycin]
- change of susceptibility (zone of inhibition) on partial genetic inactivation of FtsZ, FtsA or FtsW [1]: none of the FtsZ-AS, FtsA-AS, or FtsW-AS strains demonstrated altered hypersensitivity
